For one experiment, the target named is MLKL (full length) (Homo sapiens (Human), UniProt Q8NB16). Description: KINOMEscan binding assay, MLKL (full length). Here is the method:
(§1) Kinase assays. For most assays, kinase-tagged T7 phage strains were grown in parallel in 24-well blocks in an E. coli host derived from the BL21 strain. E. coli were grown to log-phase and infected with T7 phage from a frozen stock (multiplicity of infection=0.4) and incubated with shaking at 32° C. until lysis (90-150 minutes).
(§2) The Hill Slope was set to −1.

Another experiment has as its target RIP3 (Homo sapiens (Human), UniProt Q9Y572). The experiment in a line: KINOMEscan binding assay, RIP3. The settings on record: Table 35. Here is the method:
as §1, §2

The target of a further experiment is RIP1 (Homo sapiens (Human), UniProt Q13546). Description: KINOMEscan binding assay, RIP1. The following applies: Table 35.
The subject of experiment [1] is U937 human histiocytic leukemia cell line. Description: Cellular assay: inhibition of TSQ induced necroptosis (CellTitre-Glo). The following applies: Homo sapiens, U-937; U937 cells, TSQ cocktail, 48 hours, Table 38; read-out: Inhibition of TSQ-induced necroptosis (IC50 cell-based assay). Here is the method:
[…] ASSAY: Screening compounds for inhibition of TSQ induced necroptosis, 384 well plate format.
Cell Line ID: U937 human histiocytic leukemia cell line.
Cell Concentration (cells/well): Final cell density is 20,000 cells per well.
Cell growth medium: HT-RPMI medium+7.4% Fetal Bovine Serum (FBS). Cells are cultured in Corning 150 cm^z tissue culture flasks with vented caps at 37° C./5% CO2.
Incubation: Plates were incubated at 37° C./5% CO2 in a humidified incubator for 48 hours following addition of compounds and death stimuli (TSQ cocktail).
Compound concentration: 36 μM starting concentration, 1:3 dilution, 10 point
DMSO final concentration (% v/v): 0.3%.
Compounds in TSQ cocktail (T: TNF; S: Smac mimetic; Q: Q-VD-OPh) and their final concentrations: • hTNF-Fc (100 ng/ml)—produced by standard procedures as shown in Bossen et al., J Biol Chem, 2006, 281(20), 13964-13971. • Compound A (500 nM)—Smac mimetic, Tetralogic and SYNthesis med chem • Q-VD-OPh (10 μM)—MP Biomedicals
The cellular assay was carried out according to the following steps: • 1. Each well was prepared by sequential addition of: • a. DMSO (control; columns 1-2 and 23-24) or compound in DMSO—addition was performed using acoustic transfer of nl volumes of stock compound to give final test concentrations of 36, 12, 4, 1.3, 0.44, 0.148, 0.049, 0.016, 0.005 and 0.002 μM. All wells were backfilled with DMSO to a final total volume in the well of 100 nl. • b. Following compound/DMSO addition in step (a), 40 μL of cell suspension (5×10^5 cells/mL) was added to provide a final cell concentration of 20,000 cells per well, and • c. Following cell addition in step (b), 10 μL of 5×TSQ cocktail (except to positive controls; […]) was added to each well. • 2. After 48 hours, plate was removed from the 37° C. incubator and equilibrated to room temperature for 45 minutes. • 3. 15 μL of room temperature CellTitre-Glo2™ (Promega™) was added to each well. • 4. Shook plates for 2 minutes (˜600 rpm) and incubated at room temperature for 15 minutes to allow signal to stabilise. • 5. Read luminescence readout on a plate reader.
Percent viability was calculated for each compound according to equation (2):
[formula] • wherein • RawData is the readout of any cell containing a compound of the invention • TA is the total activity provided by the luminescence readout from DMSO only wells (columns 2 and 24)=100% viability • NSA is the non-specific activity provided by DMSO+TSQ wells (columns 1 and 23)=0% viability
Curve fitting: 10-point titration curves are fitted with the 4-parameter logistic nonlinear regression model and the IC50 reported is the inflection point of the curve.
Analysis: Data was loaded into Dotmatics™ and visualised using the Tibco® Spotfire™ software. 10 points titration curves were fitted with the 4-parameter logistic nonlinear regression model and the IC50 reported reflect the inflection point of the curve for curve fitting.
Assay involving the TSQ cocktail (T: TNF; S: Smac mimetic; Q: Q-VD-OPh): TSQ treatment ensures that cells specifically undergo necroptotic cell death. TNF activates the TNF receptor, Smac mimetic directs the signal away from proinflammatory signaling and toward the RIP1/RIP3-mediated cell death pathways, and Q-VD-OPh ensures that the apoptotic response is blocked leaving only the programmed necrosis response. The compounds' activity (solution in DMSO) tested in this TSQ-induced assay was evaluated by determining the number of viable cells in culture by measuring the amount of ATP present as measured by CelltiterGlo.

In another experiment the test system is U937 cells. Description: Counter screen: cell viability without TSQ cocktail (off-target effect). The settings on record: Homo sapiens, U-937, Table 38, read-out: Off-target effect (IC50 cell-based assay). Also on record: species or system human. Here is the method:
Counter screen: In parallel, all compounds were tested for their ability to affect cell viability. The same U937 cells were treated with compound in DMSO without the TSQ cocktail. This counter screen enabled evaluation of off-target effects. In this case, cell viability was measured by CelltiterGlo.
Background: Counterscreens check selectivity or assay interference.

We go through eleven compounds from US20250074891A1 (Anaxis Pharma Pty Ltd., priority 2021, published 2025).

For orientation: Kd means the constant that tells how readily two partners part at equilibrium. High values mean weaker binding, low ones tighter binding. For orientation: IC50 means the concentration needed to halve the response being measured.

Chain of MLKL (full length) (Q8NB16 whole entry): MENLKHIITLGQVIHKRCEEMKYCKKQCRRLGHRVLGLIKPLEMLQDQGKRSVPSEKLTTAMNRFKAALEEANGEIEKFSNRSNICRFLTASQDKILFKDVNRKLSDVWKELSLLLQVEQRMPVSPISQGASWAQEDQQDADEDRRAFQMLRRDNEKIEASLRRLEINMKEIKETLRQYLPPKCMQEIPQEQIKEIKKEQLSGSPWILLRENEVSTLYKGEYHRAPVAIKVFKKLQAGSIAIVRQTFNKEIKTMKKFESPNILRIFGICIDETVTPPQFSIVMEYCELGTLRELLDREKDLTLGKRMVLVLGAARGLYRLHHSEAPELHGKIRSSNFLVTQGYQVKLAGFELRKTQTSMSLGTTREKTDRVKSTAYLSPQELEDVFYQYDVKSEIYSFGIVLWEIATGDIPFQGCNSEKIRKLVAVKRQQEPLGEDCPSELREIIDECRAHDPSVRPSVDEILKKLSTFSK
Chain of RIP1 (Q13546 whole entry): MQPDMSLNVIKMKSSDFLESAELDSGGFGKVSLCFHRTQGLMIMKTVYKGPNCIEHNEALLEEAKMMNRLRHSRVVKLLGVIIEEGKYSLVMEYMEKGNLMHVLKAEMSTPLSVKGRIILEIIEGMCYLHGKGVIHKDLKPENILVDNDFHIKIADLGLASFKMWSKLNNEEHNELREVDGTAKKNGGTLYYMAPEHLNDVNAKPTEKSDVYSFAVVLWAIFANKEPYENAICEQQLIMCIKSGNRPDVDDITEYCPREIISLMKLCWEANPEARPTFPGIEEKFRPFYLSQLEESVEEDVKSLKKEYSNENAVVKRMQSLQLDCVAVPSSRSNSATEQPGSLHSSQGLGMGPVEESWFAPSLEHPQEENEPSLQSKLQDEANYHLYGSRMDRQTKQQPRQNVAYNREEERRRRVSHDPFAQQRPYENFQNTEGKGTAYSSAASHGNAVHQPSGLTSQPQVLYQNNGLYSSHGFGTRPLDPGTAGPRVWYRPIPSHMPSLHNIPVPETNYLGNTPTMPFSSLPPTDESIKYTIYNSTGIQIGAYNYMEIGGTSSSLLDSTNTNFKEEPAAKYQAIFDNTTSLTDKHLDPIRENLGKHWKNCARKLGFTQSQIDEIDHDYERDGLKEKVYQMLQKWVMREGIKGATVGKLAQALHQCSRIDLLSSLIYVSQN
Chain of RIP3 (Q9Y572 whole entry): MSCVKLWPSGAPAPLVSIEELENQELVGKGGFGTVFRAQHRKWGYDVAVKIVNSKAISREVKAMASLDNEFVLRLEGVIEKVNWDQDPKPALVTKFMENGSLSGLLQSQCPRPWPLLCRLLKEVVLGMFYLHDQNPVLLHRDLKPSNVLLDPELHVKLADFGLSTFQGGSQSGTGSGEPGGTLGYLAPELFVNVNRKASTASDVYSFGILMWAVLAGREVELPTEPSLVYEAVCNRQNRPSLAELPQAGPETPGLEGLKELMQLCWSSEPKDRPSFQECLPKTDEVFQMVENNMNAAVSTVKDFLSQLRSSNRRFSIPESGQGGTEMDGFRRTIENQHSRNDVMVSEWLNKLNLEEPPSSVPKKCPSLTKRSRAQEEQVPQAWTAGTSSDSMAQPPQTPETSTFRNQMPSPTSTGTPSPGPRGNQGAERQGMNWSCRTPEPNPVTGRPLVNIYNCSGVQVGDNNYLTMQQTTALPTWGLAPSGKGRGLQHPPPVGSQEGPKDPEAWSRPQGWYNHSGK

For `COCC(Oc1cc(-c2n[nH]c(Nc3cnccn3)c2C(N)=O)ccc1NS(=O)(=O)C(F)F)c1ccc(F)cc1` (stereo not shown) [Compound 319, 3-(4-((difluoromethyl)sulfonamido)-3-(1-(4-fluorophenyl)-2-methoxyethoxy)phenyl)-5-(pyrazin-2-ylamino)-1H-pyrazole-4-carboxamide], the equilibrium dissociation constant (Kd) on MLKL (full length) (Table 35) was below 0.01 µM; on RIP3 it was above 30 µM; at RIP1, above 30 µM.
With `Cc1cc(Nc2c(C(N)=O)c(-c3ccc(NS(=O)(=O)C(F)F)c(O[C@@H](C)c4ccc(F)cc4)c3)nn2C)no1` [Compound 320, (S)-3-(4-((difluoromethyl)sulfonamido)-3-(1-(4-fluorophenyl)ethoxy)phenyl)-1-methyl-5-((5-methylisoxazol-3-yl)amino)-1H-pyrazole-4-carboxamide], the Kd is below 0.01 µM on MLKL (full length) (Table 35), above 30 µM at RIP3 and above 30 µM on RIP1.
`CCS(=O)(=O)Nc1ccc(-c2n[nH]c(Nc3ccnc(OCCOCCOCCOCCNC(=O)COc4cccc5c4C(=O)N(C4CCC(=O)NC4=O)C5=O)c3)c2C(N)=O)cc1` (stereo not shown) [Compound 1002, 5-({2-[2-(2-{2-[2-(2-{[2-(2,6-dioxopiperidin-3-yl)-1,3-dioxo-2,3-dihydro-1H-isoindol-4-yl]oxy}acetamido)ethoxy]ethoxy}ethoxy)ethoxy]pyridin-4-yl}amino)-3-(4-ethanesulfonamidophenyl)-1H-pyrazole-4-carboxamide]: the IC50 (in experiment [1]; with U937 cells) was above 10 µM throughout.
Turning to `CCS(=O)(=O)Nc1ccc(-c2n[nH]c(Nc3ccnc(OCCOCCNC(=O)COc4cccc5c4C(=O)N(C4CCC(=O)NC4=O)C5=O)c3)c2C(N)=O)cc1` (stereo not shown) [Compound 1003, 5-((2-(2-(2-(2-((2-(2,6-dioxopiperidin-3-yl)-1,3-dioxoisoindolin-4-yl)oxy)acetamido)ethoxy)ethoxy)pyridin-4-yl)amino)-3-(4-(ethylsulfonamido)phenyl)-1H-pyrazole-4-carboxamide], the 50% inhibitory concentration (IC50) (in experiment [1]; with U937 cells) was above 10 µM in each case.
Consider `CCS(=O)(=O)Nc1ccc(-c2n[nH]c(Nc3ccnc(OCCOCCOCCNC(=O)COc4cccc5c4C(=O)N(C4CCC(=O)NC4=O)C5=O)c3)c2C(N)=O)cc1` (stereo not shown) [Compound 1004, 5-((2-(2-(2-(2-(2-((2-(2,6-dioxopiperidin-3-yl)-1,3-dioxoisoindolin-4-yl)oxy)acetamido)ethoxy)ethoxy)ethoxy)pyridin-4-yl)amino)-3-(4-(ethylsulfonamido)phenyl)-1H-pyrazole-4-carboxamide], for which the IC50 (in experiment [1]; in the experiment on U937 cells) was above 10 µM in each case.
As to `CCS(=O)(=O)Nc1ccc(-c2n[nH]c(Nc3ccnc(OCCOCCOCCOCCOCCOCC(=O)N[C@H](C(=O)N4C[C@H](O)C[C@H]4C(=O)NCc4ccc(-c5scnc5C)cc4)C(C)(C)C)c3)c2C(N)=O)cc1` [Compound 1008, 3-(4-ethanesulfonamidophenyl)-5-({2-[(1-{[(2S)-1-[(2S,4R)-4-hydroxy-2-({[4-(4-methyl-1,3-thiazol-5-yl)phenyl]methyl}carbamoyl)pyrrolidin-1-yl]-3,3-dimethyl-1-oxobutan-2-yl]carbamoyl}-2,5,8,11,14-pentaoxahexadecan-16-yl)oxy]pyridin-4-yl}amino)-1H-pyrazole-4-carboxamide], the IC50 (in experiment [1]; with U937 cells) was above 10 µM throughout. The Kd at MLKL (full length) (Table 36) is below 0.01 µM.
On to `CCS(=O)(=O)Nc1ccc(-c2n[nH]c(Nc3ccnc(OCCOCCOCCOCCOCCOCCOCC(=O)N[C@H](C(=O)N4C[C@H](O)C[C@H]4C(=O)NCc4ccc(-c5scnc5C)cc4)C(C)(C)C)c3)c2C(N)=O)cc1` [Compound 1009, 3-(4-ethanesulfonamidophenyl)-5-({2-[(1-{[(2S)-1-[(2S,4R)-4-hydroxy-2-({[4-(4-methyl-1,3-thiazol-5-yl)phenyl]methyl}carbamoyl)pyrrolidin-1-yl]-3,3-dimethyl-1-oxobutan-2-yl]carbamoyl}-2,5,8,11,14,17-hexaoxanonadecan-19-yl)oxy]pyridin-4-yl}amino)-1H-pyrazole-4-carboxamide], for which the IC50 (in experiment [1]; with U937 cells) was above 10 µM in each case. In addition, the dissociation constant (Kd) on MLKL (full length) (Table 36) is below 0.01 µM.
As to `CCS(=O)(=O)Nc1ccc(-c2n[nH]c(Nc3ccnc(OCCOCC(=O)N[C@H](C(=O)N4C[C@H](O)C[C@H]4C(=O)NCc4ccc(-c5scnc5C)cc4)C(C)(C)C)c3)c2C(N)=O)cc1` [Compound 1010, 3-(4-ethanesulfonamidophenyl)-5-({2-[2-({[(2S)-1-[(2S,4R)-4-hydroxy-2-({[4-(4-methyl-1,3-thiazol-5-yl)phenyl]methyl}carbamoyl)pyrrolidin-1-yl]-3,3-dimethyl-1-oxobutan-2-yl]carbamoyl}methoxy)ethoxy]pyridin-4-yl}amino)-1H-pyrazole-4-carboxamide], the IC50 (in experiment [1]; with U937 cells) was above 10 µM throughout. On MLKL (full length) (Table 36), this compound showed a dissociation constant Kd of 0.01 to 1 µM.
For the compound `Cc1ncsc1-c1ccc(CNC(=O)[C@@H]2C[C@@H](O)CN2C(=O)[C@@H](NC(=O)c2cccc(COc3ccc(Nc4[nH]nc(-c5ccc(NS(=O)(=O)C(F)F)c(O[C@@H](C)c6ccc(F)cc6)c5)c4C(N)=O)nc3)c2)C(C)(C)C)cc1` [Compound 1031, 3-(4-(difluoromethylsulfonamido)-3-((S)-1-(4-fluorophenyl)ethoxy)phenyl)-5-((5-((3-(((S)-1-((2S,4R)-4-hydroxy-2-((4-(4-methylthiazol-5-yl)benzyl)carbamoyl)pyrrolidin-1-yl)-3,3-dimethyl-1-oxobutan-2-yl)carbamoyl)benzyl)oxy)pyridin-2-yl)amino)-1H-pyrazole-4-carboxamide], the IC50 in experiment [1] was below 1 µM; in the experiment on U937 cells, 1 to 10 µM.
Regarding `Cc1ncsc1-c1ccc(CNC(=O)[C@@H]2C[C@@H](O)CN2C(=O)[C@@H](NC(=O)CCCCCCOc2ccc(Nc3[nH]nc(-c4ccc(NS(=O)(=O)C(F)F)c(O[C@@H](C)c5ccc(F)cc5)c4)c3C(N)=O)nc2)C(C)(C)C)cc1` [Compound 1059, 3-[4-(difluoromethanesulfonamido)-3-[(1S)-1-(4-fluorophenyl)ethoxy]phenyl]-5-({5-[(6-{[(2S)-1-[(2S,4R)-4-hydroxy-2-({[4-(4-methyl-1,3-thiazol-5-yl)phenyl]methyl}carbamoyl)pyrrolidin-1-yl]-3,3-dimethyl-1-oxobutan-2-yl]carbamoyl}hexyl)oxy]pyridin-2-yl}amino)-1H-pyrazole-4-carboxamide], the values for the IC50 (in experiment [1]; with U937 cells) were below 1 µM and 1 to 10 µM, respectively.
For the compound `CCS(=O)(=O)Nc1ccc(-c2n[nH]c(Nc3ccn(C)n3)c2C(N)=O)cc1` [compound 91, 3-(4-(ethyl-sulfonamido)phenyl)-5-((1-methyl-1H-pyrazol-3-yl)amino)-1H-pyrazole-4-carboxamide], the values for the dissociation constant Kd at MLKL (full length) (Table 35), on RIP3 and on RIP1 were below 0.01 µM, above 30 µM and above 30 µM, respectively.
